In US20260035365A1, “1H-PYRROLO[3,2-B]PYRIDINE DERIVATIVES AS IRREVERSIBLE INHIBITORS OF MUTANT EGFR FOR THE TREATMENT OF CANCER” (Bayer Aktiengesellschaft, priority 2022, published 2026):

How the values were obtained:
BA/F3 (insSVD) cells = assay: Ba/F3 cell survival assay (Cell Titer-Glo), EGFR-insSVD; format: cell-based; settings: Mus musculus, BaF3, 48 h, without IL-3, with EGF
How it was run: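 Viability read by CellTiter-Glo luminescence after 48 h compound exposure at 37° C, 4000 cells/well. Retrovirally transduced, puromycin-selected Ba/F3 lines carrying EGFR-insSVD ± T790M grew IL-3-free with 10 ng/mL EGF for 2 days beforehand; compound delivered by 100 nL pin.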

[1] = target: mutEGFR (D770_N771insSVD) (Homo sapiens, UniProt P00533, INS767SVD); assay: Exon20-mutant-EGFR (D770_N771insSVD) TR-FRET kinase assay; format: biochemical; settings: 2 mM ATP, 15 min preincubation
mutEGFR (D770_N771insSVD), sequence (P00533 with tags, fused parts or gaps INS767SVD limits assumed): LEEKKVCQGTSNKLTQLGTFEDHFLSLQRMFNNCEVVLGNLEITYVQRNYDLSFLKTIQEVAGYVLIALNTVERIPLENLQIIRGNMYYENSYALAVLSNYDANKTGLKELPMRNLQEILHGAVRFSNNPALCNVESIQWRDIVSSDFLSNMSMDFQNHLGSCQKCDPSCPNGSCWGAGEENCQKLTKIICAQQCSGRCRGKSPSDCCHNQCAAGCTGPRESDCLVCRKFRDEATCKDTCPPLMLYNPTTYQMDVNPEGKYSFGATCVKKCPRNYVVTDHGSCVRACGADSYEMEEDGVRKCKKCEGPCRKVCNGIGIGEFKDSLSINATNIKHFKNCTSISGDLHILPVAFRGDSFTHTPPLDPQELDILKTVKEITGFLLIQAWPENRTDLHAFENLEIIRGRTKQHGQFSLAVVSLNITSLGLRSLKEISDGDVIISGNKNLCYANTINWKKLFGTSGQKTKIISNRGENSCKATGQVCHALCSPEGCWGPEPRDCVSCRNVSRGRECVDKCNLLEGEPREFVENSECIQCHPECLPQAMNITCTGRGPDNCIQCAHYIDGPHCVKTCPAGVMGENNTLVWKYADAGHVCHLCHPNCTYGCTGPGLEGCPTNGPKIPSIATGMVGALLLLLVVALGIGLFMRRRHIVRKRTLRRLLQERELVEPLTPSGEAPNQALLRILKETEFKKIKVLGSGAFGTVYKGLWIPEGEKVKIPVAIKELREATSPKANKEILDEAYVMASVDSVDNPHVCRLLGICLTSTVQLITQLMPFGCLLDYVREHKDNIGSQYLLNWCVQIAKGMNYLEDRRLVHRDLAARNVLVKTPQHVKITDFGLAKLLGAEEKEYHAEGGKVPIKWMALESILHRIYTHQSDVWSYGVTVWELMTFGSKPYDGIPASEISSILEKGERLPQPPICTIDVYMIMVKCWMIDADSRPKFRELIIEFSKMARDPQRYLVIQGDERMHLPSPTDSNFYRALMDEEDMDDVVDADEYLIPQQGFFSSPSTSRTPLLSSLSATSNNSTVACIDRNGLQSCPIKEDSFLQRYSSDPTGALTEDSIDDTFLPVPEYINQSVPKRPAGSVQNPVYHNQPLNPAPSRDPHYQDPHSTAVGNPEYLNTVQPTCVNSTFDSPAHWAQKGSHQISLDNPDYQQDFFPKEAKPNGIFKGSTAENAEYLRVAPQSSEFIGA
How it was run: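 GST-fused human EGFR fragment R669-A1210 carrying the SVD insertion, Sf9-expressed, typically 15 pg/μl, was preincubated with compound for 15 min at 22° C in pH 7.0 Hepes/MgCl2 buffer. Phosphorylation was read by HTRF (665/620 nm ratio), normalised to no-inhibitor and no-enzyme controls.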

[2] = target: mutEGFR (D770_N771insNPG, T790); assay: mutEGFR (D770_N771insNPG, T790) kinase assay; format: biochemical, human
mutEGFR (D770_N771insNPG, T790), sequence (P00533 with tags, fused parts or gaps INS770NPG limits assumed): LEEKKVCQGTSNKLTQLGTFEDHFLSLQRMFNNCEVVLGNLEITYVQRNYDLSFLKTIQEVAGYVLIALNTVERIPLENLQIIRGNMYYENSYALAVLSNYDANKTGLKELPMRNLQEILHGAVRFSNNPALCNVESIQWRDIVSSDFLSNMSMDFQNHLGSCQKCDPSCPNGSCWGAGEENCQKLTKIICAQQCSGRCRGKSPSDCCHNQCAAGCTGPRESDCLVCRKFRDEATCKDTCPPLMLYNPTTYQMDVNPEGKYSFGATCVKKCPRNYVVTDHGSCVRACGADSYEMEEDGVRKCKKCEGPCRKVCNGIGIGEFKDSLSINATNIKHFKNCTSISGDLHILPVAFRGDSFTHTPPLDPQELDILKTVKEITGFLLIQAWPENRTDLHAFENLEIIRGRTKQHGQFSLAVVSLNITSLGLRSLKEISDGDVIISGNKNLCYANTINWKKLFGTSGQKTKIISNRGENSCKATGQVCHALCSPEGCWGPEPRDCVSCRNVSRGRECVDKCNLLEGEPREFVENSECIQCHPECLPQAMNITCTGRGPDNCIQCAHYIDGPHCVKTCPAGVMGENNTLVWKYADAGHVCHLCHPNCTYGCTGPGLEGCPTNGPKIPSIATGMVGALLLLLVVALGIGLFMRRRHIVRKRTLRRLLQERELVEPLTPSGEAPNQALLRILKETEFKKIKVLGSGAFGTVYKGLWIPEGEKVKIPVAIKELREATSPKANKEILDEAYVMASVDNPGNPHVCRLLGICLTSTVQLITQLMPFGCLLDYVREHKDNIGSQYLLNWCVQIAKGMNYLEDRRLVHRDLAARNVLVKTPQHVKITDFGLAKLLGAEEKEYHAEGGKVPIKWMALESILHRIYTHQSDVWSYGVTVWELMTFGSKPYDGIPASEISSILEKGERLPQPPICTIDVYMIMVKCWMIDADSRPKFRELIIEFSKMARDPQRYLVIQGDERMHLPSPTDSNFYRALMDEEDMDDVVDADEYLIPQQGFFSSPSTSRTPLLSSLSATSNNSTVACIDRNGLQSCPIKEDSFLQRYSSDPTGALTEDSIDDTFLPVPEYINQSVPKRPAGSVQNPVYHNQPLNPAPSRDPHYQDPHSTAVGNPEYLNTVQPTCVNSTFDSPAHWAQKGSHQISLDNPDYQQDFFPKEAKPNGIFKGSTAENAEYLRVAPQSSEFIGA

C=CC(=O)N1CCC[C@H]1COc1cnccc1-c1[nH]c2cccnc2c1-c1cccc(F)c1F [Example 86, 1-{(2S)-2-[({4-[3-(2,3-difluorophenyl)-1H-pyrrolo[3,2-b]pyridin-2-yl]pyridin-3-yl}oxy)methyl]pyrrolidin-1-yl}prop-2-en-1-one] gave an IC50 (BA/F3 (insSVD) cells) of 67 nM, an IC50 [1] of 0.911 nM and an IC50 [2] of 3.99 nM.

For C=CS(=O)(=O)N(C)CCOc1cnccc1-c1[nH]c2cccnc2c1-c1cc(C)ccc1F [Example 64, N-[2-({4-[3-(2-fluoro-5-methylphenyl)-1H-pyrrolo[3,2-b]pyridin-2-yl]pyridin-3-yl}oxy)ethyl]-N-methylethenesulfonamide], the IC50 (BA/F3 (insSVD) cells) was 92.9 nM, the IC50 [1] was 1.47 nM and the IC50 [2] was 2.21 nM.

O=C(/C=C/CN1CCCC1)N1CCC[C@H]1COc1cnccc1-c1[nH]c2cccnc2c1-c1ccccc1 [Example 99, (2E)-1-[(2S)-2-({[4-(3-phenyl-1H-pyrrolo[3,2-b]pyridin-2-yl)pyridin-3-yl]oxy}methyl)pyrrolidin-1-yl]-4-(pyrrolidin-1-yl)but-2-en-1-one] gave an IC50 (BA/F3 (insSVD) cells) of 115 nM, an IC50 [1] of 2.32 nM and an IC50 [2] of 10.8 nM.

Molecule C=CC(=O)N(C)CCOc1cnccc1-c1[nH]c2cccnc2c1-c1cc(OC)ccc1F [Example 56, N-[2-({4-[3-(2-fluoro-5-methoxyphenyl)-1H-pyrrolo[3,2-b]pyridin-2-yl]pyridin-3-yl}oxy)ethyl]-N-methylprop-2-enamide] has an IC50 (BA/F3 (insSVD) cells) of 4180 nM, an IC50 [1] of 152 nM and an IC50 [2] of 395 nM.

C=CS(=O)(=O)N(C)CCOc1cnccc1-c1[nH]c2cccnc2c1-c1cccc(OC)c1 [Example 69, N-[2-({4-[3-(3-methoxyphenyl)-1H-pyrrolo[3,2-b]pyridin-2-yl]pyridin-3-yl}oxy)ethyl]-N-methylethenesulfonamide] gave an IC50 (BA/F3 (insSVD) cells) of 287 nM, an IC50 [1] of 3.65 nM and an IC50 [2] of 8.7 nM.

Molecule C=CS(=O)(=O)N(C)C[C@H](C)Oc1cnccc1-c1[nH]c2cccnc2c1-c1ccccc1 (stereo in doubt) [Example 134, N-methyl-N—[-2-{[4-(3-phenyl-1H-pyrrolo[3,2-b]pyridin-2-yl)pyridin-3-yl]oxy}propyl]ethenesulfonamide] has an IC50 (BA/F3 (insSVD) cells) of 622 nM, an IC50 [1] of 22 nM and an IC50 [2] of 101 nM.

C=CC(=O)N1CC[C@H]1COc1cnccc1-c1[nH]c2cccnc2c1-c1cccc(C(F)(F)F)c1 (single isomer, unassigned) [Example 143] was tested, and the IC50 (BA/F3 (insSVD) cells) was 3840 nM, the IC50 [1] was 129 nM and the IC50 [2] was 678 nM.

C=CC(=O)N(C)CCOc1cnccc1-c1[nH]c2cccnc2c1-c1ccc2ccsc2c1 [Example 44, N-[2-({4-[3-(1-benzothiophen-6-yl)-1H-pyrrolo[3,2-b]pyridin-2-yl]pyridin-3-yl}oxy)ethyl]-N-methylprop-2-enamide] gave an IC50 (BA/F3 (insSVD) cells) of 999 nM, an IC50 [1] of 21.1 nM and an IC50 [2] of 64 nM.

C=CS(=O)(=O)N(C)CCOc1cnccc1-c1[nH]c2cccnc2c1-c1cc(CC)ccc1F [Example 67, N-[2-({4-[3-(5-ethyl-2-fluorophenyl)-1H-pyrrolo[3,2-b]pyridin-2-yl]pyridin-3-yl}oxy)ethyl]-N-methylethenesulfonamide] was tested, and the IC50 (BA/F3 (insSVD) cells) was 418 nM, the IC50 [1] was 3.01 nM and the IC50 [2] was 14.6 nM.

Work on C=CS(=O)(=O)N(C)CCOc1cnccc1-c1[nH]c2cccnc2c1-c1cccc(CC)c1 [Example 63, N-[2-({4-[3-(3-ethylphenyl)-1H-pyrrolo[3,2-b]pyridin-2-yl]pyridin-3-yl}oxy)ethyl]-N-methylethenesulfonamide] yielded an IC50 (BA/F3 (insSVD) cells) of 455 nM, an IC50 [1] of 1.44 nM and an IC50 [2] of 5.88 nM.

C=CS(=O)(=O)N1CC[C@H]1COc1cnccc1-c1[nH]c2cccnc2c1-c1ccccc1 (single isomer, unassigned) [Example 141] gave an IC50 (BA/F3 (insSVD) cells) of 231 nM, an IC50 [1] of 0.596 nM and an IC50 [2] of 2.21 nM.

C=CC(=O)N1CCC[C@H]1COc1cnccc1-c1[nH]c2c(C)ccnc2c1-c1cc(Cl)ccc1F [Example 137, 1-{(2S)-2-[({4-[3-(5-chloro-2-fluorophenyl)-7-methyl-1H-pyrrolo[3,2-b]pyridin-2-yl]pyridin-3-yl}oxy)methyl]pyrrolidin-1-yl}prop-2-en-1-one] showed an IC50 (BA/F3 (insSVD) cells) of 25.1 nM, an IC50 [1] of 0.724 nM and an IC50 [2] of 1.55 nM.

With C=CC(=O)N1CCC[C@H]1COc1cnccc1-c1[nH]c2cccnc2c1-c1ccccc1F [Example 89, 1-{(2S)-2-[({4-[3-(2-fluorophenyl)-1H-pyrrolo[3,2-b]pyridin-2-yl]pyridin-3-yl}oxy)methyl]pyrrolidin-1-yl}prop-2-en-1-one] the IC50 (BA/F3 (insSVD) cells) was 24.2 nM, the IC50 [1] was 0.547 nM and the IC50 [2] was 2.31 nM.

For C=CS(=O)(=O)N1CCC(Oc2cnccc2-c2[nH]c3cccnc3c2-c2cccc(Cl)c2)C1 (racemic) [Example 121, 3-(3-chlorophenyl)-2-(3-{[(3RS)-1-(ethenesulfonyl)pyrrolidin-3-yl]oxy}pyridin-4-yl)-1H-pyrrolo[3,2-b]pyridine], the IC50 (BA/F3 (insSVD) cells) was 497 nM, the IC50 [1] was 6.91 nM and the IC50 [2] was 18 nM.

Cn1ccc(C#CC(=O)N2CCC[C@H]2COc2cnccc2-c2[nH]c3cccnc3c2-c2ccccc2)n1 [Example 95, 3-(1-methyl-1H-pyrazol-3-yl)-1-[(2S)-2-({[4-(3-phenyl-1H-pyrrolo[3,2-b]pyridin-2-yl)pyridin-3-yl]oxy}methyl)pyrrolidin-1-yl]prop-2-yn-1-one] was tested, and the IC50 (BA/F3 (insSVD) cells) was 682 nM, the IC50 [1] was 71.2 nM and the IC50 [2] was 246 nM.

C=CS(=O)(=O)N1CC[C@H]1COc1cnccc1-c1[nH]c2cccnc2c1-c1cccc(C(F)(F)F)c1 (single isomer, unassigned) [Example 144] gave an IC50 (BA/F3 (insSVD) cells) of 1520 nM, an IC50 [1] of 5.12 nM and an IC50 [2] of 19 nM.

In the case of C=CC(=O)N(C)CCOc1cnccc1-c1[nH]c2cccnc2c1-c1cccc(CC)c1 [Example 45, N-[2-({4-[3-(3-ethylphenyl)-1H-pyrrolo[3,2-b]pyridin-2-yl]pyridin-3-yl}oxy)ethyl]-N-methylprop-2-enamide], the IC50 (BA/F3 (insSVD) cells) is reported as 1280 nM, the IC50 [1] is reported as 24.6 nM and the IC50 [2] is reported as 76.3 nM.

In the case of C=CS(=O)(=O)N(C)CCOc1cnccc1-c1[nH]c2cccnc2c1-c1cc(F)ccc1F [Example 61, N-[2-({4-[3-(2,5-difluorophenyl)-1H-pyrrolo[3,2-b]pyridin-2-yl]pyridin-3-yl}oxy)ethyl]-N-methylethenesulfonamide], the IC50 (BA/F3 (insSVD) cells) is reported as 120 nM, the IC50 [1] is reported as 0.872 nM and the IC50 [2] is reported as 2.82 nM.

C=CC(=O)N(C)CCOc1cnccc1-c1[nH]c2cccnc2c1-c1ccccc1CC [Example 53, N-[2-({4-[3-(2-ethylphenyl)-1H-pyrrolo[3,2-b]pyridin-2-yl]pyridin-3-yl}oxy)ethyl]-N-methylprop-2-enamide] gave an IC50 (BA/F3 (insSVD) cells) of 3270 nM, an IC50 [1] of 112 nM and an IC50 [2] of 744 nM.

Molecule C=CC(=O)N(C)CCOc1cnccc1-c1[nH]c2cccnc2c1-c1cc(C(F)(F)F)ccc1F [Example 51, N-{2-[(4-{3-[2-fluoro-5-(trifluoromethyl)phenyl]-1H-pyrrolo[3,2-b]pyridin-2-yl}pyridin-3-yl)oxy]ethyl}-N-methylprop-2-enamide] has an IC50 (BA/F3 (insSVD) cells) of 1920 nM, an IC50 [1] of 75.6 nM and an IC50 [2] of 132 nM.

For C=CC(=O)N(C)CCOc1cnccc1-c1[nH]c2cccnc2c1-c1cccc(C(F)(F)F)c1 [Example 49, N-methyl-N-{2-[(4-{3-[3-(trifluoromethyl)phenyl]-1H-pyrrolo[3,2-b]pyridin-2-yl}pyridin-3-yl)oxy]ethyl}prop-2-enamide], the IC50 (BA/F3 (insSVD) cells) was 1930 nM, the IC50 [1] was 57.4 nM and the IC50 [2] was 151 nM.
